According to PMC12084297, “Cytoplasmic connexin43-microtubule interactions promote glioblastoma stem-like cell maintenance and tumorigenicity” (Cell Death & Disease, 2025):

Experiments:
Format in all cases: cell-based, human
[1] = test system: VTC-001 GSCs; test: Limiting dilution analysis (ELDA), VTC-001 GSCs; conditions: VTC-001, 100 μM every other day, 2 weeks; compared to JM2-scrambled or control
Method: (§1) GSCs and PDX GBM22 cells were plated as single cell suspension in low-attachment 96-well plates (GSCs: 100–500 cells per well; GBM22 cells: 500–2000 cells per well), using methods similar to those reported previously. Cells were then treated with peptides every other day. 2 weeks later, gliospheres were observed using phase contrast microscopy on a Revolve microscope (Echo Laboratories). The number of gliospheres was then determined, while the gliosphere size was assessed by diameter measurement. To evaluate stem cell frequency in GSCs, gliosphere formation assay was performed with limiting cell dilutions with cells plated at varying densities in low-attachment 96-well plates. Cells were treated with peptides every other day, and after 2 weeks, gliosphere-positive wells were observed and scored using phase contrast microscopy on a Revolve microscope. The stem cell frequency was analyzed using the online data analysis program ELDA (Extreme Limiting Dilution Analysis).
All quantification was performed on experiments repeated at least three times. Statistical analysis was conducted with GraphPad Prism (GraphPad Software). Data were analyzed for significance using Student’s t test, one-way ANOVA with Tukey’s multiple comparisons test, and presented as mean ± SD. […] Statistical significance between experimental groups was determined using chi-square (χ²) tests within the ELDA framework. […]

[2] = test system: Cx43; test: Cx43 protein expression, immunoblot, VTC-001 GSCs; conditions: 50 μM, 24 h
Method: Cells were lysed in RIPA buffer (0.1% sodium dodecyl sulphate, 50 mM Tris pH 7.4, 150 mM NaCl, 1 mM EDTA, 1% Triton X-100, 1% deoxycholic acid, 200 μM Na3VO4, and 1 mM NaF) supplemented with Halt^TM Protease and Phosphatase Inhibitor Cocktail (Thermo Fisher). Lysates were sonicated prior to centrifugation at 4 °C for 20 min at 10,000 x g. Protein concentration was quantified using the DC protein assay (Bio-Rad Laboratories) and a standard curve obtained with increasing concentrations of Bovine Serum Albumin (BSA; Fisher Scientific). Protein samples were normalized to 20 μg total protein per lane and resolved by SDS-PAGE electrophoresis. 4X Bolt LDS sample buffer supplemented with 400 mM DTT (final concentration 1X Bolt LDS with 100 mM DTT) was added to samples before heating at 70 °C for 10 min. SDS-PAGE was run using NuPAGE Bis-Tris 4%–12% gradient gels (Thermo Fisher) with MES or MOPS running buffer according to manufacturer’s instructions. Spectra™ Multicolor Protein Ladder (Thermo Fisher) or Precision Plus Protein™ Kaleidoscope™ Prestained Protein Standards (Bio-Rad Laboratories) were included as protein ladders on the same gels. […] Membranes were imaged on a ChemiDoc™ imaging system, and analyzed with Image Lab software (Bio-Rad Laboratories). […]

[3] = test system: HES1 mRNA; test: HES1 mRNA by RT-qPCR, VTC-001 GSCs; conditions: 50 μM, 24 h, compared to antennapedia alone
Method: (§2) RNA was extracted using the PureLink^TM RNA mini extraction kit (Thermo Fisher) and on-column DNA digestion was completed using PureLink^TM DNase according to the manufacturer’s instructions. RNA was reverse transcribed to generate cDNA using the iScript^TM Reverse Transcription SuperMix for RT-qPCR kit (Bio-Rad Laboratories). Real-time PCR was performed using the SYBR select Master Mix for CFX (Thermo Fisher) in hard-shell 96-well PCR plates (Bio-Rad Laboratories) on a CFX Connect Real Time System (Bio-Rad Laboratories). Primer sequences used were: hNOTCH1_Fwd: 5’-CGCACAAGGTGTCTTCCAG-3’; hNOTCH1_Rev: 5’-CGGCGTGTGAGTTGATGA-3’; hHES1_Fwd: 5’-GGCTGGAGAGGCGGCTAA-3’; hHES1_Rev: 5’-[…]-3’; hHEY1_Fwd: 5’-[…]-3’; hHEY1_Rev: 5’-[…]-3’.

[4] = test system: HES1 mRNA; test: HES1 mRNA by RT-qPCR, VTC-037 GSCs; conditions: 50 μM, 24 h, compared to antennapedia alone or JM2-scrambled
Method: as §2

[5] = test system: PDX GBM22 cells; test: Gliosphere formation assay, PDX GBM22 cells; conditions: 100 μM every other day, 2 weeks
Method: as §1

VFFKGVKDRVKGRSD [JM2] was tested, and the “GSC frequency / self-renewal (limiting dilution)” value [1] was “significant decrease in VTC-001, VTC-034, and VTC-037 GSC frequency”, the Cx43 protein expression [2] was “without affecting Cx43 expression” and the “Hes1 mRNA expression” value [3] was “significantly decreased the expression of Notch downstream targets Hes1 and Hey1 at the transcription level”. The “Hes1 mRNA expression” value [4] was “significantly decreased the expression of Notch downstream targets Hes1 and Hey1 at the transcription level”, the “GBM22-derived gliosphere size (diameter)” value ([5]; n = 5) was “significantly decreases GBM22-derived gliosphere size” and the GBM22-derived gliosphere number ([5]; n = 6) was “significantly decreases GBM22-derived gliosphere size as assessed by diameter measurement (Fig. 8C), and number”.
